Results: article PMC11380953, “Multivalent, calcium-independent binding of surfactant protein A and D to sulfated glycosaminoglycans of the alveolar epithelial glycocalyx” (American Journal of Physiology - Lung Cellular and …, 2024)

Assays:
[1] = target: T1, rhSP-D (human recombinant SP-D) (Homo sapiens, UniProt P35247); assay: Microscale thermophoresis (MST) binding to rhSP-D; details: apparent KD at protein 9 nM, 25°C, read-out: KD (MST Measurements) ±Kd confidence
T1 construct: host or cells: CHO cells
T1 sequence (P35247 21-375): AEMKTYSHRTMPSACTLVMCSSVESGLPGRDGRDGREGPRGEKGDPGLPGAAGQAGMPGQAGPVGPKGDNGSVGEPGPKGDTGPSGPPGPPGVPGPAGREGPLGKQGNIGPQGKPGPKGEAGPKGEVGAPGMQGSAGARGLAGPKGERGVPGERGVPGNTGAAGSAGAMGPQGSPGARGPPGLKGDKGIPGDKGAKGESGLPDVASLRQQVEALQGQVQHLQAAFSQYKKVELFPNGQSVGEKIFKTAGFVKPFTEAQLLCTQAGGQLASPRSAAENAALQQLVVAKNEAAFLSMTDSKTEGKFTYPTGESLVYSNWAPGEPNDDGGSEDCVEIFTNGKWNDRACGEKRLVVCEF
Method: (§1) Human-isolated and recombinant proteins were labeled using the Monolith Protein Labeling Kit RED-NHS according to the manufacturer’s instructions. This kit reagent reacts with lysine residues present in the sequence of the protein, as the dye carries a reactive NHS-ester group. Briefly, as all the proteins were in a Tris buffer solution, the buffer solution was exchanged to a HEPES-based buffer with the A-Column provided in the kit. Then, 10 µM solution of protein was incubated with a threefold excess of dye in 100 µL for 30 min at room temperature protected from light. The labeled protein was separated from the free dye using the B-Column provided in the kit. The concentration of the labeled protein {c(M) = [A205 − (A650 × 0.19)]/[31 × MWprotein]) and the degree of labeling [DOL = A650/(195.000 M^−1cm^−1 × c(M)] were calculated according to the manufacturer’s instruction, measuring absorption at 205 nm (for the protein) and 650 nm (for the dye).
(§2) Thermophoresis is the phenomenon of movement of particles along a temperature gradient. Solvated molecules move from higher to lower temperature. This movement or depletion of molecules from the heat is quantified by the Soret coefficient ST: Chot/Ccold = exp (−STΔT). The depletion of molecules depends on the interface between molecule and solvent. Therefore, thermophoresis monitors changes in size, charge, and solvation entropy of molecules. In this regard, the thermophoresis or movement of a protein is different from a protein-ligand complex ([35]). Microscale or miniaturized thermophoresis allows to monitor molecular interaction in only a few microliters. For this method, the fluorescently labeled protein is mixed with a decreasing concentration of a ligand in 16 glass capillaries. The initial fluorescence is measured (Fcold), then an infrared (IR) laser beam is switched on and focused on the center of the first capillary, where the temperature gradient is created from the center to the walls of the capillary. At the same time, a dichroic mirror allows fluorescence from the labeled protein to be monitored (Fhot). The rate of fluorescence change is related to the amount of protein-ligand complex form, which depends on the ligand concentration, due to changes in size, charge, or hydration shell of the protein-ligand complex. The dissociation constant KD is calculated from the binding curve derived by plotting the normalized fluorescence (FNorm) at a given time after the start of the thermophoresis against the respective ligand concentration ([33], [34], [36]).
(§3) Samples were measured in a Monolith NT.115, using Premium Capillaries (MO-K025) and Monolith Protein labeling kit RED-NHS (MO-L011) all from NanoTemper Technologies (Munich, Germany). Solutions of a 3X concentrated MST buffer (15 mM Tris, 300 mM NaCl, 0.3% Tween 20, 15 mM CaCl2, pH 7.4), sugars (270 mM) or GAG (30 µM) solution, and protein solution (27 nM) were prepared separately. When a different concentration was used, a threefold concentration of the solution was prepared. Afterward, sugars and GAG solutions were diluted 1:2 with water in a series of 16 steps. For the measurement, 3 µL of each prepared component (3 µL MST buffer, 3 µL GAG solution, and 3 µL labeled protein) was mixed, centrifuged shortly to eliminate precipitates, and loaded into a glass capillary. The final concentrations of the sugars were thus between 90 –and 0.00275 mM or GAGs 10 and 0.000305 µM for GAGs, respectively. The 16 capillaries were loaded in the Monolith NT.115 and measurements were performed with a 40% LED power and medium MST power at 25°C.
(§4) Every set of 16 capillaries was prepared in 3–6 replicates (technical replicates) and measured. The replicate measures of every capillary were plotted against concentration and outliers were excluded, using the MO Affinity Analysis 3 v01 software (NanoTemper Technologies, Munich, Germany). […]

human SP-A [2] = system: human SP-A; set-up: method as in Haagsman et al.; [18]; details: ref Haagsman et al., [18]; cited from earlier work
human SP-D = system: human SP-D; set-up: method as in Lu et al.; [19]; details: ref Lu et al., [19]; cited from earlier work
human SP-A [3] = system: human SP-A; set-up: method as in Haurum et al.; [41]; details: ref Haurum et al., [41], read-out: IC50 mean ±SD; cited from earlier work
[4] = target: T2, hSP-A (human SP-A, isolated from BAL of PAP patient) (Homo sapiens, UniProt Q8IWL1+Q8IWL2); assay: Microscale thermophoresis (MST) binding to hSP-A; details: for Kd: hSP-A, apparent KD at protein 9 nM, 25°C, read-out: KD (MST Measurements) ±Kd confidence
T2 construct: Human PAP patient, BAL isolated; from tissue; host or cells: bronchoalveolar lavage fluid of a patient with pulmonary alveolar proteinosis
Method: as §1, §2, §3, §4

recombinant human SP-D = system: recombinant human SP-D; set-up: method as in van Eijk et al.; [42]; details: ref van Eijk et al., [42], read-out: IC50 mean ± SE; cited from earlier work
[5] = system: recombinant construct containing the N-terminal tagged fusion protein +neck and CRD of human SP-D; set-up: method as in Crouch et al. 2006 [47]; details: ref Crouch et al. 2006 [47], read-out: I50 mean ± SE; cited from earlier work

T2 sequence (Q8IWL2 21-248): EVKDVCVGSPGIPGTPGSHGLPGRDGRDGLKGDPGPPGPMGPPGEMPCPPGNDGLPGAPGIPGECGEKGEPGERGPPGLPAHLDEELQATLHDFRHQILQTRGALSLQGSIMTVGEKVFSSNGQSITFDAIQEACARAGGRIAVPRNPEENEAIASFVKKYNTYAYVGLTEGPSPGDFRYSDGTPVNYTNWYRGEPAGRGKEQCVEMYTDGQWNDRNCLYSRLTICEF
T2 sequence (Q8IWL1 21-248): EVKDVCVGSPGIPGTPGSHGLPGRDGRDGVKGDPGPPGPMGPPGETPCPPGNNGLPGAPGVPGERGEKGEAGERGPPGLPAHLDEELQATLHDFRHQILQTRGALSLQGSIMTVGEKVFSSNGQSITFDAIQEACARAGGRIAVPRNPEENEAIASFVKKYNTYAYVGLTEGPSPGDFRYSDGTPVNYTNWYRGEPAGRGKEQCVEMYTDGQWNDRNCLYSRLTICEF

Row | SMILES | Kd [1] [mM] | Amount of SP-A bound (human SP-A [2]) [%] | IC50 (human SP-D) [mM] | IC50 (human SP-A [3]) [mM] | Kd [4] [mM] | IC50 (recombinant human SP-D) [mM] | binding of hSP-A to sugar, calcium dependence ([4]; MST, 0-10 mM calcium, 0-20 mM EDTA (Fig. 1D, E)) | IC50 [5] [mM]
1 | C[C@H](O)[C@@H](O)[C@@H](O)[C@H](O)C=O [Fuc, L-fucose] | 0.37 | 100 | 6.5 | 22 ± 1 | 4.07 | 4.4 ± 0.1 | – | –
2 | O=C[C@H](O)[C@@H](O)[C@@H](O)[C@H](O)CO [Gal, D(+)-galactose] | 0.82 | 100 | 22 | – | 1.94 | 7.9 ± 3.8 | only seen in the presence of calcium | 10 ± 2
3 | CC(=O)N[C@H]1C(O)O[C@H](CO)[C@H](O)[C@@H]1O (stereo partly drawn) [GalNAc, N-acetyl-D-galactosamine] | 0.39 | 7 | – | – | 7.27 | – | – | –
4 | OC[C@@H]1OC(O)[C@@H](O)[C@H](O)[C@H]1O (stereo partly drawn) [Glc, L(−)-glucose] | 0.12 | 100 | 9.6 | 30 ± 1 | 1.39 | 4 ± 1 | – | 4.1 ± 0.9
5 | O=C[C@H](O)[C@@H](O)[C@H](O)[C@H](O)C(=O)O [GlcAc, D-glucuronic acid] | 0.005 | – | – | – | 0.09 | – | – | –
6 | CC(=O)N[C@@H]1[C@@H](O)[C@H](O)[C@@H](CO)O[C@@H]1O [GlcNAc, N-acetyl-D-glucosamine] | 0.13 | 2 | 28.5 | – | 0.16 | 13.5 ± 4.5 | – | 14 ± 2
7 | OC[C@H]1O[C@H](O[C@H]2[C@H](O)[C@@H](O)[C@H](O)O[C@@H]2CO)[C@H](O)[C@@H](O)[C@@H]1O [Maltose, D(+)-maltose] | 0.45 | – | 5.1 | 23 ± 5 | 0.03 | 4.1 ± 0.9 | – | 2.7 ± 0.4
8 | OC[C@H]1OC(O)[C@@H](O)[C@@H](O)[C@@H]1O (stereo partly drawn) [Man, D(+)-mannose] | 0.02 | 95 ± 10 | 7.5 | 39 ± 3 | 0.14 | 2.9 ± 0.4 | – | 5.3 ± 0.5
9 | CC(=O)N[C@@H]1C(O)O[C@H](CO)[C@@H](O)[C@@H]1O (stereo partly drawn) [ManNAc, N-acetyl-D-mannosamine monohydrate] | 5.39 | – | – | 8 ± 1 | 0.06 | 1.8 ± 0.3 | – | 2.1 ± 0.4
10 | CC(=O)N[C@H]1[C@H]([C@H](O)[C@H](O)CO)OC(O)(C(=O)O)C[C@@H]1O (stereo partly drawn) [Neu5Ac, N-acetyl-neuraminic acid] | 0.27 | – | – | – | 0.21 | – | – | –
